Assay results published in US9079878B2, “(4-phenylimidazol-2-yl) ethylamine derivatives useful as sodium channel modulators” (Pfizer Limited, priority 2011, dated 2015).

Target: T1, hNav1.8 (Homo sapiens, UniProt Q9Y5Y9)
T1 construct: host or cells: HEK cells, stably transfected
Assay: hNav1.8 whole-cell patch-clamp electrophysiology in HEK cells (conventional or PatchXpress 7000)
Format: cell-based
Conditions: estimated IC50 calculated from single point % inhibition; HEK cells stably transfected with hNav1.8; 20 msec step to 0 mV after 8 second prepulse to V1/2; average of replicates; read-out: NaV1.8 EIC50
Text: The ability of the imidazole derivatives of the formula (I) to inhibit the NaV1.8 channel may be measured using the assay described below.
HEK cells stably transfected with hNav1.8, purchased from Millipore (Millipore Corp., Billerica, Mass. 01821), were maintained according to manufacturer's instructions. For electrophysiological studies, cells were removed from the culture flask by brief trypsinization and re-plated at low density onto glass cover slips. Cells were typically used for electrophysiological experiments within 24 to 72 h after plating.
Cover slips containing HEK cells expressing hNav1.8 were placed in a bath on the stage of an inverted microscope and perfused (approximately 1 mL/min) with extracellular solution of the following composition: 138 mM NaCl, 2 mM CaCl2, 5.4 mM KCl, 1 mM MgCl2, 10 mM glucose, and 10 mM HEPES, pH 7.4, with NaOH. […] The osmolarity of the extracellular and intracellular solutions was 300 mOsm/kg and 295 mOsm/kg, respectively. All recordings were made at room temperature (22-24° C.) using AXOPATCH 200B amplifiers and PCLAMP software (Axon Instruments, Burlingame, Calif.).
hNav1.8 currents in HEK cells were measured using the whole-cell configuration of the patch-clamp technique (Hamill et al., 1981). Uncompensated series resistance was typically 2 to 5 mega ohms and >85% series resistance compensation was routinely achieved. […] Current records were acquired at 20 to 50 KHz and filtered at 5 to 10 KHz.
HEK cells stably transfected with hNav1.8 were viewed under Hoffman contrast optics and placed in front of an array of flow pipes emitting either control or compound-containing extracellular solutions. All compounds were dissolved in dimethyl sulfoxide to make 10 mM stock solutions, which were then diluted into extracellular solution to attain the final concentrations desired.
The voltage-dependence of inactivation was determined by applying a series of depolarizing prepulses (8 sec long in 10 mV increments) from a negative holding potential. The voltage was then immediately stepped to 0 mV to assess the magnitude of the sodium current. Currents elicited at 0 mV were plotted as a function of prepulse potential to allow estimation of the voltage at which 50% of the channels were inactivated (midpoint of inactivation or V1/2). Compounds were tested for their ability to inhibit hNav1.8 sodium channels by activating the channel with a 20 msec voltage step to 0 mV following an 8 second conditioning prepulse to the empirically determined V1/2. Compound effect (% inhibition) was determined by difference in current amplitude before and after application of test compounds. For ease of comparison, “estimated IC-50” values were calculated from single point electrophysiology data by the following equation, (tested concentration, uM)×(100−% inhibition/% inhibition). Inhibition values <20% and >80% were excluded from the calculation.
In some cases electrophysiological assays were conducted with PatchXpress 7000 hardware and associated software (Molecular Devices Corp). All assay buffers and solutions were identical to those used in conventional whole-cell voltage clamp experiments described above. hNav1.8 cells were grown as above to 50%-80% confluency and harvested by trypsinization. Trypsinized cells were washed and resuspended in extracellular buffer at a concentration of 1×10^6 cells/mL. The onboard liquid handling facility of the PatchXpress was used for dispensing cells and application of test compounds. Determination of the voltage midpoint of inactivation was as described for conventional whole-cell recordings. Cells were then voltage-clamped to the empirically determined V1/2 and current was activated by a 20 msec voltage step to 0 mV.

T1 sequence (Q9Y5Y9 whole entry): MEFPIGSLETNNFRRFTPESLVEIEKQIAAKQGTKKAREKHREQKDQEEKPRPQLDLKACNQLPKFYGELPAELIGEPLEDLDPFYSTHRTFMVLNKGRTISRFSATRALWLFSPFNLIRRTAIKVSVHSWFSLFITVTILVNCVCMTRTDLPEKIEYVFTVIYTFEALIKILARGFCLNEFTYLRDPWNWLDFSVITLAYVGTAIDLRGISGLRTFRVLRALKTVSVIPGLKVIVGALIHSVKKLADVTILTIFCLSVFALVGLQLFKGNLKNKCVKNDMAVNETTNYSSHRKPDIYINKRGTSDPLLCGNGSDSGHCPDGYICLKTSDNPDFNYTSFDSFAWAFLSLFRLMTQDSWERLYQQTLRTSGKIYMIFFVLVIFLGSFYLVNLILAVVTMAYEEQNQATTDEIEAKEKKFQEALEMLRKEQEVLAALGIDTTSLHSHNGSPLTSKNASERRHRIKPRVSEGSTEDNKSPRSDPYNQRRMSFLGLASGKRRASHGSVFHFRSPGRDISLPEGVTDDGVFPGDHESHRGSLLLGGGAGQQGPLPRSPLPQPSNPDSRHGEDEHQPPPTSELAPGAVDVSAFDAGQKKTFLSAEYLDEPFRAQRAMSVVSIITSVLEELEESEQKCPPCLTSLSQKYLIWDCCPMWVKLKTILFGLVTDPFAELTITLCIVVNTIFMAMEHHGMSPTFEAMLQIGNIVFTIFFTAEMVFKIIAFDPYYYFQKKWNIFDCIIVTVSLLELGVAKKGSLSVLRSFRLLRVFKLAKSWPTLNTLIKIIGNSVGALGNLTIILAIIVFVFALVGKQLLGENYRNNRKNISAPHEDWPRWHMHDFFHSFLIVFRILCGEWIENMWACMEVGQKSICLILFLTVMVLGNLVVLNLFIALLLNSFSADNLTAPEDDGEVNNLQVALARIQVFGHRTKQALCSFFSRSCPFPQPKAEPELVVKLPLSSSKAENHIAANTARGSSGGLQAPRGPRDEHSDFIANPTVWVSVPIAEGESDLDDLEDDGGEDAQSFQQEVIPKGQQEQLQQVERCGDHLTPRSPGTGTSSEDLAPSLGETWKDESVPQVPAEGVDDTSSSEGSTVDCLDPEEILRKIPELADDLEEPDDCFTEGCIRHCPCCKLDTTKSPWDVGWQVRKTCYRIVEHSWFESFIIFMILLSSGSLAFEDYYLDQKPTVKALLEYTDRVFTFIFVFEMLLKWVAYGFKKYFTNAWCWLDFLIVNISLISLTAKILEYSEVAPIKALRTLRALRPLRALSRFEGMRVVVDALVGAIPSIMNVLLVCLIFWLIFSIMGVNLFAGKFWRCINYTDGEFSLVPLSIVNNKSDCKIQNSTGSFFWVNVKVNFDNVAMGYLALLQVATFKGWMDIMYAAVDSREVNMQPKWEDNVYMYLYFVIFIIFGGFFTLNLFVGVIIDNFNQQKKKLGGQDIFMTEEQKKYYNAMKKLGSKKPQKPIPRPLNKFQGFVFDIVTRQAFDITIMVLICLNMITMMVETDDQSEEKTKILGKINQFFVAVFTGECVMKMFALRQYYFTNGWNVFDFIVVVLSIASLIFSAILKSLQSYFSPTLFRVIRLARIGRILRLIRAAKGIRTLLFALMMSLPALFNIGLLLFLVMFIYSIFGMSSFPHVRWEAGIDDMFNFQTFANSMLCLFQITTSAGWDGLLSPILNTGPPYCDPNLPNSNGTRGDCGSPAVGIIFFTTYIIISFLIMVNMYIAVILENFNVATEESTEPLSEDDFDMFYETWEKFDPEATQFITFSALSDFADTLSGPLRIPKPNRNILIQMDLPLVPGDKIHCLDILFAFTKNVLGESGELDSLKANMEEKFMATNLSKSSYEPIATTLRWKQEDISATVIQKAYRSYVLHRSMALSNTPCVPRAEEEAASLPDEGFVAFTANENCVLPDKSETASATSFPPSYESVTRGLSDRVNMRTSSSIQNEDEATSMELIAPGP

Structure (SMILES) | IC50 [nM]
NC1(Cc2nc(-c3ccc(OC(F)(F)F)cc3)c[nH]2)CCCOC1 (stereo not shown) [Example 1, 3-({4-[4-(Trifluoromethoxy)phenyl]-1H-imidazol-2-yl}methyl)tetrahydro-2H-pyran-3-amine] | 190
Cc1cc(-c2c[nH]c(CC3(N)COC3)n2)ccc1Cl [Example 2, 3-{[4-(4-Chloro-3-methylphenyl)-1H-imidazol-2-yl]methyl}oxetan-3-amine] | 360
C[C@H](c1nc(-c2ccc(OC(F)(F)F)cc2)c[nH]1)C1(N)COC1 (single isomer, unassigned) [Example 10] | 3.3
CCC(c1nc(-c2ccc(OC(F)(F)F)cc2)c[nH]1)C1(N)COC1 (racemic) [Example 15, 3-(1-{4-[4-(Trifluoromethoxy)phenyl]-1H-imidazol-2-yl}propyl)oxetan-3-amine] | 11
NC1(Cc2nc(-c3ccc(OC(F)(F)F)cc3)c[nH]2)CCOC1 (stereo not shown) [Example 3, 3-({4-[4-(Trifluoromethoxy)phenyl]-1H-imidazol-2-yl}methyl)tetrahydrofuran-3-amine] | 260
C[C@@H](c1nc(-c2ccc(OC(F)(F)F)cc2)c[nH]1)C1(N)COC1 (single isomer, unassigned) [Example 11] | 9
CC[C@@H](c1nc(-c2ccc(OC(F)(F)F)cc2)c[nH]1)C1(N)COC1 (single isomer, unassigned) [Example 17] | 75
CC[C@H](c1nc(-c2ccc(OC(F)(F)F)cc2)c[nH]1)C1(N)COC1 (single isomer, unassigned) [Example 16] | 32
C[C@@H](c1nc(-c2ccc(C(F)(F)F)cc2)c[nH]1)C1(N)COC1 (single isomer, unassigned) [Example 14] | 51
NC1(Cc2nc(-c3ccc(S(F)(F)(F)(F)F)cc3)c[nH]2)COC1 [Example 6, 3-({4-[4-(Pentafluoro-λ^6-sulfanyl)phenyl]-1H-imidazol-2-yl}methyl)oxetan-3-amine] | 920
CC(c1nc(-c2ccc(OC(F)(F)F)cc2)c[nH]1)C1(N)COC1 (racemic) [Example 9, 3-(1-{4-[4-(Trifluoromethoxy)phenyl]-1H-imidazol-2-yl}ethyl)oxetan-3-amine] | 26
CC(c1nc(-c2ccc(C(F)(F)F)cc2)c[nH]1)C1(N)COC1 (racemic) [Example 12, 3-(1-{4-[4-(Trifluoromethyl)phenyl]-1H-imidazol-2-yl}ethyl)oxetan-3-amine] | 9.7
NC1(Cc2nc(-c3ccc(OC(F)F)cc3)c[nH]2)COC1 [Example 5, 3-({4-[4-(Difluoromethoxy)phenyl]-1H-imidazol-2-yl}methyl)oxetan-3-amine] | 480
C[C@H](c1nc(-c2ccc(C(F)(F)F)cc2)c[nH]1)C1(N)COC1 (single isomer, unassigned) [Example 13] | 7.8
NC1(Cc2nc(-c3ccc(OC(F)(F)F)cc3)c[nH]2)CCOCC1 [Example 7, 4-({4-[4-(Trifluoromethoxy)phenyl]-1H-imidazol-2-yl}methyl)tetrahydro-2H-pyran-4-amine] | 400
NC1(Cc2nc(-c3ccc(C(F)(F)F)cc3)c[nH]2)COC1 [Example 4, 3-({4-[4-(Trifluoromethyl)phenyl]-1H-imidazol-2-yl}methyl)oxetan-3-amine] | 360
